Assay results published in patent US9179674B2, “Macrocyclic picolinamide compounds with fungicidal activity” (DOW AGROSCIENCES LLC, priority 2013, dated 2015).
Where two headings read alike, the source gives them in different places.

Tests used:
[1] = test system: Puccinia triticina; assay: Wheat Brown Rust fungicidal activity (PUCCRT); type: in vivo; settings: Puccinia triticina; for pest or weed control at 100 ppm: rate 100 ppm; for pest or weed control at 121.5 g/ha: rate 121.5 g/H
Summary of the method: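 Yuma wheat seedlings at first-leaf stage sprayed to run-off (acetone solution in water with 110 ppm Triton X-100) or track-sprayed as EC with 0.1% Trycol 5941; inoculated with P. triticina spores before or after treatment. Overnight dark dew at 22° C., then greenhouse 24° C.; disease severity 0–100% gives percent control vs untreated.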

[2] = test system: Mycosphaerella graminicola; Anamorph: Septoria tritici; assay: Leaf Blotch of Wheat fungicidal activity (SEPTTR); type: in vivo; settings: Zymoseptoria tritici; for pest or weed control at 100 ppm: rate 100 ppm; for pest or weed control at 121.5 g/ha: rate 121.5 g/H
Summary of the method: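 Acetone solutions diluted with nine volumes of water containing 110 ppm Triton X-100, sprayed to run-off on first-leaf wheat seedlings (Yuma), inoculated with S. tritici before or after treatment. Plants held in dew chambers, then in a 20 °C greenhouse. Disease severity (0–100%) scored when untreated plants fully symptomatic; % control relative to untreated.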

[3] = test system: Phakopsora pachyrhizi; assay: Asian Soybean Rust fungicidal activity (PHAKPA); type: in vivo; settings: 25 ppm; for Disease Control PHAKPA 1DP: 1 Day Protectant; for Disease Control PHAKPA 3DC: 3 Day Curative
Experimental: Evaluation of Fungicidal Activity: Asian Soybean Rust (Phakopsora pachyrhizi; Bayer Code PHAKPA)
Technical grades of materials were dissolved in acetone, which were then mixed with nine volumes of water containing 0.011% Tween 20. The fungicide solutions were applied onto soybean seedlings using an automated booth sprayer to run-off. All sprayed plants were allowed to air dry prior to further handling.
Soybean plants (variety Williams 82) were grown in soil-less Metro mix, with one plant per pot. Two weeks old seedlings were used for testing. Plants were inoculated either 3 days prior to or 1 day after fungicide treatments. Plants were incubated for 24 h in a dark dew room at 22° C. and 100% RH then transferred to a growth room at 23° C. for disease to develop. Disease severity was assessed on the sprayed leaves.

[4] = 24 h, 1 Day Protectant, read-out: Disease control PUCCRT 1DP
[5] = 72 h, 3 Day Curative, read-out: Disease control PUCCRT 3DC
[6] = 24 h, 1 Day Protectant, read-out: Disease control SEPTTR 1DP
[7] = 72 h, 3 Day Curative, read-out: Disease control SEPTTR 3DC

Structure (SMILES) | melting point [°C] | pest or weed control at 100 ppm [1, 4] [%] | pest or weed control at 100 ppm [1, 5] [%] | pest or weed control at 100 ppm [2, 6] [%] | pest or weed control at 100 ppm [2, 7] [%] | pest or weed control at 121.5 g/ha [1, 4] [%] | pest or weed control at 121.5 g/ha [1, 5] [%] | Disease Control PHAKPA 1DP [3] | Disease Control PHAKPA 3DC [3] | pest or weed control at 121.5 g/ha [2, 6] [%] | pest or weed control at 121.5 g/ha [2, 7] [%]
COc1ccnc(C(=O)N[C@H]2COC[C@H](Cc3ccc(F)cc3)[C@@H](OC(=O)C3CC3)[C@H](C)OC2=O)c1OCOC(C)=O [Compound F90] | 59 to 64 | 80 to 100 | 80 to 100 | 80 to 100 | 80 to 100 | – | – | – | – | – | –
COc1ccnc(C(=O)N[C@H]2COC[C@H](CCC(C)C)[C@@H](OCC(C)C)[C@H](C)OC2=O)c1OCOC(C)=O [Compound F106] | – | 80 to 100 | 80 to 100 | 80 to 100 | 80 to 100 | 80 to 100 | 80 to 100 | A (80-100) | A (80-100) | 80 to 100 | 80 to 100
COc1ccnc(C(=O)N[C@H]2COC[C@H](Cc3cc(F)c(F)c(F)c3)[C@@H](OCC(C)C)[C@H](C)OC2=O)c1OCOC(C)=O [Compound F109] | – | 80 to 100 | 80 to 100 | 80 to 100 | 80 to 100 | 80 to 100 | 80 to 100 | A (80-100) | B (More than 0-Less than 80) | 80 to 100 | 80 to 100

Further lines, with some results ahead:

melting point [°C] | Structure (SMILES) | pest or weed control at 100 ppm [1, 4] [%] | pest or weed control at 100 ppm [1, 5] [%] | pest or weed control at 100 ppm [2, 6] [%] | pest or weed control at 100 ppm [2, 7] [%] | pest or weed control at 121.5 g/ha [1, 4] [%] | pest or weed control at 121.5 g/ha [1, 5] [%] | Disease Control PHAKPA 1DP [3] | Disease Control PHAKPA 3DC [3] | pest or weed control at 121.5 g/ha [2, 6] [%] | pest or weed control at 121.5 g/ha [2, 7] [%]
52 to 56 | COc1ccnc(C(=O)N[C@H]2COC[C@H](Cc3ccc(F)cc3)[C@@H](OC(=O)C(C)C)[C@H](C)OC2=O)c1OCOC(C)=O [Compound F91] | 80 to 100 | 80 to 100 | 80 to 100 | 80 to 100 | – | – | – | – | – | –
49 to 53 | COc1ccnc(C(=O)N[C@H]2COC[C@H](Cc3ccc(Cl)cc3Cl)[C@@H](OCC(C)C)[C@H](C)OC2=O)c1OCOC(C)=O [Compound F111] | 80 to 100 | 80 to 100 | 80 to 100 | 80 to 100 | – | – | – | – | – | –
53 to 57 | CCCCCO[C@@H]1[C@@H](Cc2ccc(Cl)cc2Cl)COC[C@H](NC(=O)c2nccc(OC)c2OCOC(C)=O)C(=O)O[C@H]1C [Compound F112] | – | – | – | – | 80 to 100 | 0 to 80 | – | – | 80 to 100 | 80 to 100
57 to 60 | COc1ccnc(C(=O)N[C@H]2COC[C@H](Cc3ccc(Cl)cc3Cl)[C@@H](OC(=O)C(C)C)[C@H](C)OC2=O)c1OCOC(=O)C(C)C [Compound F119] | 80 to 100 | 80 to 100 | 80 to 100 | 80 to 100 | – | – | – | – | – | –
